Source: ChEMBL document CHEMBL3885861, “Open TG-GATES”

Species: Rattus norvegicus
Experiment: Open TG-GATES - Regimen: Single
Format: toxicity, organism-based, Sprague-Dawley
Design: regimen Single, gender Male, age 6 weeks
Settings: in vivo, po, route gavage; for gamma-GTP / ALP / AST / BUN / CRE / Ca / DBIL / GLC / IP / K / LDH / Na / PL / RALB / TBIL / TC / TG / TP / ALT: tissue Plasma; for APTT / Bas / Eos / Fbg / Hb / Ht / MCH / MCHC / MCV / Mono / Neu / PT / Plat / RBC / Ret / WBC / Lym: tissue Blood; for KIDNEY_L / KIDNEY_R / KIDNEY_TOTAL: tissue Kidney; for LIVER: tissue Liver
[1] = 300 mg/kg, 3 h, dose level Middle
[2] = 300 mg/kg, 6 h, dose level Middle
[3] = 300 mg/kg, 9 h, dose level Middle
[4] = 300 mg/kg, 24 h, dose level Middle

O=C(O)c1cn(C2CC2)c2cc(N3CCNCC3)c(F)cc2c1=O [CIPROFLOXACIN]
gamma-GTP (100 mg/kg, 24 h, dose level Low): 1.4 IU/L
TERMINAL_BW [1]: 184.9 g
APTT [1]: 16.7 s
Bas [1]: 0%
Eos [1]: 0.4%
Fbg [1]: 204.6 mg/dL
Hb [1]: 13.2 g/dL
Ht [1]: 39.5%
MCH [1]: 22.8 pg
MCHC [1]: 33.4%
MCV [1]: 68.2 fL
Mono [1]: 6%
Neu [1]: 14.2%
PT [1]: 12.4 s
Plat [1]: 99.2 x10_4/uL
RBC [1]: 579 x10_4/ul
Ret [1]: 11.6%
WBC [1]: 102.6 x10_2/uL
KIDNEY_L [1]: 0.8 g
KIDNEY_R [1]: 0.9 g
KIDNEY_TOTAL [1]: 1.7 g
LIVER [1]: 9 g
ALP [1]: 905.6 IU/L
AST [1]: 68.2 IU/L
BUN [1]: 11.6 mg/dL
CRE [1]: 0.5 mg/dL
Ca [1]: 11 mg/dL
DBIL [1]: 0.006 mg/dL
GLC [1]: 183.6 mg/dL
IP [1]: 9.9 mg/dL
K [1]: 4.7 meq/L
LDH [1]: 78.6 IU/L
Na [1]: 138.8 meq/L
PL [1]: 145.6 mg/dL
RALB [1]: 3.9 g/dL
TBIL [1]: 0.4 mg/dL
TC [1]: 84 mg/dL
TG [1]: 43.6 mg/dL
TP [1]: 5.5 g/dL
gamma-GTP [1]: 1 IU/L
TERMINAL_BW [2]: 179.8 g
Bas [2]: 0%
Eos [2]: 1%
Fbg [2]: 208.2 mg/dL
Hb [2]: 12.8 g/dL
MCH [2]: 22.1 pg
MCHC [2]: 33%
MCV [2]: 67.1 fL
Mono [2]: 8%
PT [2]: 12.4 s
Plat [2]: 101.5 x10_4/uL
RBC [2]: 579.8 x10_4/ul
Ret [2]: 10.5%
WBC [2]: 103.6 x10_2/uL
KIDNEY_L [2]: 0.9 g
KIDNEY_R [2]: 0.8 g
KIDNEY_TOTAL [2]: 1.7 g
LIVER [2]: 8.1 g
ALP [2]: 804.2 IU/L
ALT [2]: 35.2 IU/L
BUN [2]: 11 mg/dL
CRE [2]: 0.5 mg/dL
Ca [2]: 11.6 mg/dL
DBIL [2]: 0.038 mg/dL
GLC [2]: 175.2 mg/dL
IP [2]: 10.3 mg/dL
K [2]: 5.1 meq/L
LDH [2]: 82.2 IU/L
Na [2]: 138 meq/L
PL [2]: 131.8 mg/dL
RALB [2]: 3.8 g/dL
TBIL [2]: 0.4 mg/dL
TC [2]: 82.2 mg/dL
TG [2]: 36.2 mg/dL
TP [2]: 5.6 g/dL
gamma-GTP [2]: 1.4 IU/L
TERMINAL_BW [3]: 176.2 g
APTT [3]: 16.9 s
Bas [3]: 0%
Eos [3]: 0.8%
Fbg [3]: 220.4 mg/dL
Hb [3]: 13.2 g/dL
Ht [3]: 39.7%
Lym [3]: 81%
MCV [3]: 67.5 fL
Mono [3]: 5.2%
Neu [3]: 13.4%
PT [3]: 11.5 s
Plat [3]: 101.9 x10_4/uL
RBC [3]: 588.6 x10_4/ul
Ret [3]: 9.9%
WBC [3]: 105.6 x10_2/uL
KIDNEY_L [3]: 0.8 g
KIDNEY_R [3]: 0.8 g
KIDNEY_TOTAL [3]: 1.7 g
LIVER [3]: 7.2 g
ALP [3]: 927.2 IU/L
ALT [3]: 33 IU/L
AST [3]: 67.4 IU/L
BUN [3]: 10.2 mg/dL
CRE [3]: 0.5 mg/dL
DBIL [3]: 0.082 mg/dL
GLC [3]: 191.4 mg/dL
IP [3]: 10.9 mg/dL
K [3]: 5 meq/L
LDH [3]: 79.8 IU/L
Na [3]: 139.2 meq/L
PL [3]: 120.4 mg/dL
RALB [3]: 3.9 g/dL
TBIL [3]: 0.3 mg/dL
TC [3]: 72.8 mg/dL
TP [3]: 5.6 g/dL
gamma-GTP [3]: 1.4 IU/L
TERMINAL_BW [4]: 194.3 g
Bas [4]: 0%
Eos [4]: 1%
Fbg [4]: 214.4 mg/dL
Hb [4]: 12.9 g/dL
Lym [4]: 77.2%
MCH [4]: 21.4 pg
MCHC [4]: 33.1%
MCV [4]: 64.8 fL
Mono [4]: 7%
PT [4]: 12.4 s
Plat [4]: 106.2 x10_4/uL
RBC [4]: 600.4 x10_4/ul
Ret [4]: 9.4%
WBC [4]: 96.1 x10_2/uL
KIDNEY_L [4]: 0.9 g
KIDNEY_R [4]: 0.9 g
KIDNEY_TOTAL [4]: 1.8 g
LIVER [4]: 8.5 g
ALP [4]: 843 IU/L
ALT [4]: 37.8 IU/L
AST [4]: 71.8 IU/L
BUN [4]: 17.6 mg/dL
CRE [4]: 0.5 mg/dL
Ca [4]: 11.3 mg/dL
DBIL [4]: 0.058 mg/dL
GLC [4]: 193 mg/dL
IP [4]: 9.2 mg/dL
K [4]: 4.7 meq/L
LDH [4]: 93.4 IU/L
Na [4]: 140.2 meq/L
PL [4]: 153.2 mg/dL
RALB [4]: 3.9 g/dL
TBIL [4]: 0.3 mg/dL
TC [4]: 95.4 mg/dL
TG [4]: 49 mg/dL
TP [4]: 5.9 g/dL
gamma-GTP [4]: 1.8 IU/L
